Literature values, collected in patent US11304923B2, “Use of a benzoate containing composition to treat glycine encephalopathy” (Rush University Medical Center, priority 2017, dated 2022).

What was measured:
DJ-1 = conditions: astrocytes and neurons
[1] = test system: disease process of multiple sclerosis (MS); conditions: mice
neurotrophin-3 (NT-3) = conditions: brain cells
[2] = test system: brain-derived neurotrophic factor (BDNF); conditions: brain cells

SMILES: O=C([O-])c1ccccc1.[Na+] [sodium benzoate]
- DJ-1 protein level (DJ-1): up-regulates
- disease process of multiple sclerosis (MS) [1]: suppresses
- production of NT-3 (neurotrophin-3 (NT-3)): increases
- production of BDNF [2]: increases
